Laboratory results taken from ChEMBL document CHEMBL3856267, “Identification of 5,6-dihydroimidazo[2,1-b]thiazoles as a new class of antimicrobial agents” (Bioorg Med Chem, 2016).
Active and inactive are the calls of the source. The calls are words filed in the database; no cut-off is given here.

Experiments:
[1] = Selectivity ratio of MIC90 for vancomycin-intermediate Staphylococcus aureus Mu50 ATCC 700699 to MIC90 for methicillin-resistant Staphylococcus aureus ATCC BAA-44; format: functional
[2] = Cytotoxicity against HEK cells assessed as reduction in cell viability after 48 hrs by MTT assay; format: toxicity, cell-based, HEK293; settings: human, read-out: MIC50
[3] = tested on: Staphylococcus aureus; assay: Antimicrobial activity against methicillin-resistant Staphylococcus aureus ATCC BAA-44 measured after overnight incubation by microdilution broth method; format: functional
[4] = tested on: Staphylococcus aureus; assay: Antimicrobial activity against methicillin-resistant Staphylococcus aureus ATCC 33591 measured after overnight incubation by microdilution broth method; format: functional
[5] = Hemolytic activity in human RBC at 128 ug/ml after 1 hr; format: ADME, cell-based, Erythrocyte; settings: red blood cells, read-out: Activity
[6] = Therapeutic index, ratio of IC50 for HEK cells to MIC90 for methicillin-resistant Staphylococcus aureus ATCC BAA-44; format: cell-based, HEK293; settings: human, read-out: TI
[7] = Antimicrobial activity against vancomycin-intermediate Staphylococcus aureus Mu50 ATCC 700699 measured after overnight incubation by microdilution broth method; format: functional, Staphylococcus aureus subsp. aureus Mu50
[8] = Selectivity ratio of MIC90 for methicillin-resistant Staphylococcus aureus ATCC 33591 to MIC90 for methicillin-resistant Staphylococcus aureus ATCC BAA-44; format: functional
[9] = tested on: Staphylococcus aureus; assay: Growth inhibition of methicillin-resistant Staphylococcus aureus ATCC 33591 at 64 ug/ml measured after overnight incubation by microdilution broth method relative to control; format: functional; settings: read-out: GI
[10] = tested on: Staphylococcus aureus; assay: Antimicrobial activity against methicillin-resistant Staphylococcus aureus USA300-0114 infected in Galleria Mellonella assessed as increase in larvae survival at 10 times MIC measured 24 to 48 hrs post dose; format: functional
[11] = tested on: Staphylococcus aureus; assay: Antimicrobial activity against methicillin-resistant Staphylococcus aureus USA300-0114 infected in Galleria Mellonella assessed as increase in survival of worms at 5 times MIC measured 24 to 48 hrs post dose; format: functional
[12] = tested on: Staphylococcus aureus; assay: Inhibition of Staphylococcus aureus DNA gyrase assessed as reduction in supercoiling of relaxed pHOT-1 after 30 mins by SDS based agarose gel electrophoresis

SMILES | Selectivity ratio [1] | CC50 at 48 h [2] [µM] | MIC90 [3] | MIC90 [4] | hemolysis at 1 h, 128 ug/ml [5] [%] | selectivity ratio [6] | MIC90 [7] | Selectivity ratio [8] | inhibition of growth at 64 µg/mL [9] [%] | Activity [10] | Activity [11] | inhibition [12]
N=C(N)NCCC[C@@H]1CN2C(=N1)SC(c1ccccc1)=C2c1ccccc1 | 2 | 100 | 338 µM | 111 µM | < 2 | 0.3 | 338 µM |  |  |  |  | 
Cn1cc(C[C@@H]2CN3C(=N2)SC(c2ccccc2)=C3c2ccccc2)c2ccccc21 | 2 | 63 | 9.5 µM | 38 µM | < 2 | 6.6 | 19 µM |  |  |  |  | 
Oc1ccc(C[C@@H]2CN3C(=N2)SC(c2ccccc2)=C3c2ccccc2)cc1 | 2 | 72 | 31 µM | 20 µM | < 2 | 2.3 | 40 µM |  |  |  |  | 
CC(C)C[C@H]1CN2C(=N1)SC(c1ccccc1)=C2c1ccccc1 |  |  | 24 µM | 48 µM | < 2 |  |  | 2 | > 80 |  |  | 
CC(C)C[C@H]1CN2C(c3ccc4ccccc4c3)=CSC2=N1 |  |  | 51 µM | 102 µM | < 2 |  |  | 2 | > 80 |  |  | 
CC(C)C[C@@H]1CN2C(=N1)SC(c1ccccc1)=C2c1ccccc1 | 2 | 56 | 11 µM | 12 µM | < 2 | 5 | 24 µM |  |  | Active | Active | Dose-dependent effect
CC(C)C[C@@H]1CN2C(c3ccc4ccccc4c3)=CSC2=N1 | 2 | 36 | 51 µM | 51 µM | < 2 | 0.7 | 102 µM |  |  |  |  | 
CN[C@H](CC(C)C)C(=O)N[C@H]1C(=O)N[C@@H](CC(N)=O)C(=O)N[C@H]2C(=O)N[C@H]3C(=O)N[C@H](C(=O)N[C@H](C(=O)O)c4cc(O)cc(O)c4-c4cc3ccc4O)[C@H](O)c3ccc(c(Cl)c3)Oc3cc2cc(c3O[C@@H]2O[C@H](CO)[C@@H](O)[C@H](O)[C@H]2O[C@H]2C[C@](C)(N)[C@H](O)[C@H](C)O2)Oc2ccc(cc2Cl)[C@H]1O [VANCOMYCIN] |  |  | 4 mg/L | 2 mg/L |  |  | 8 mg/L |  |  |  |  | 
N=C(N)NCCC[C@H]1CN2C(=N1)SC(c1ccccc1)=C2c1ccccc1 |  |  | 338 µM | 169 µM | < 2 |  |  | 2 | > 80 |  |  | 
c1ccc(C[C@H]2CN3C(=N2)SC(c2ccccc2)=C3c2ccccc2)cc1 |  |  | 21 µM | 173 µM | < 2 |  |  | 2 | > 80 |  |  | 
Oc1ccc(C[C@H]2CN3C(=N2)SC(c2ccccc2)=C3c2ccccc2)cc1 |  |  | 42 µM | 84 µM | < 2 |  |  | 2 | > 80 |  |  | 
Cn1cc(C[C@@H]2CN3C(c4ccc5ccccc5c4)=CSC3=N2)c2ccccc21 | 2 | 20 | 10 µM | 10 µM | < 2 | 2 | 40 µM |  |  |  |  | 
COc1cccc(OC)c1C(=O)N[C@@H]1C(=O)N2[C@@H]1SC(C)(C)[C@@H]2C(=O)O [METHICILLIN] |  |  | > 128 mg/L | > 128 mg/L |  |  | > 128 mg/L |  |  |  |  | 
N=C(N)NCCC[C@@H]1CN2C(c3ccc4ccccc4c3)=CSC2=N1 | 2 | 257 | 69 µM | 69 µM | < 2 | 3.7 | 184 µM |  |  |  |  | 
N=C(N)NCCC[C@H]1CN2C(c3ccc4ccccc4c3)=CSC2=N1 |  |  | 182 µM | 364 µM | < 2 |  |  | 2 | > 80 |  |  | 
Cn1cc(C[C@H]2CN3C(=N2)SC(c2ccccc2)=C3c2ccccc2)c2ccccc21 |  |  | 19 µM | 151 µM | < 2 |  |  | 2 | > 80 |  |  | 
c1ccc(C[C@@H]2CN3C(=N2)SC(c2ccccc2)=C3c2ccccc2)cc1 | 2 | 71 | 14.6 µM | 21 µM | < 2 | 4.9 | 42 µM |  |  |  |  | 
Cn1cc(C[C@H]2CN3C(c4ccc5ccccc5c4)=CSC3=N2)c2ccccc21 |  |  | 20 µM | 162 µM | < 2 |  |  | 2 | > 80 |  |  | 
